From the CheMixHub viscosity set

Experiment: xn = mol fraction of the nth substance listed

ClC(Cl)Cl + c1ccccc1
Details | viscosity [mPa·s]
293.15 K, 101 kPa, x1 = 0.101 | 0.627
293.15 K, 101 kPa, x1 = 0.245 | 0.606
293.15 K, 101 kPa, x1 = 0.433 | 0.593
293.15 K, 101 kPa, x1 = 0.653 | 0.582
298 K, 101 kPa, x2 = 0.1452 | 0.5431
298 K, 101 kPa, x2 = 0.2124 | 0.5457
298 K, 101 kPa, x2 = 0.2765 | 0.5478
298 K, 101 kPa, x2 = 0.3958 | 0.5532
298 K, 101 kPa, x2 = 0.5047 | 0.559
298 K, 101 kPa, x2 = 0.5556 | 0.562
298 K, 101 kPa, x2 = 0.6045 | 0.566
298 K, 101 kPa, x2 = 0.6513 | 0.5702
298 K, 101 kPa, x2 = 0.6963 | 0.5751
298 K, 101 kPa, x2 = 0.781 | 0.5844
298 K, 101 kPa, x2 = 0.8594 | 0.5943
298 K, 101 kPa, x2 = 0.8965 | 0.6002
298 K, 101 kPa, x2 = 0.9322 | 0.6044
298.15 K, 101 kPa, x1 = 0.0974 | 0.587
298.15 K, 101 kPa, x1 = 0.1964 | 0.581
298.15 K, 101 kPa, x1 = 0.2012 | 0.5935
298.15 K, 101 kPa, x1 = 0.3014 | 0.5886
298.15 K, 101 kPa, x1 = 0.3582 | 0.5866
298.15 K, 101 kPa, x1 = 0.4568 | 0.5805
298.15 K, 101 kPa, x1 = 0.4857 | 0.5773
298.15 K, 101 kPa, x1 = 0.6022 | 0.57
298.15 K, 101 kPa, x1 = 0.6861 | 0.557
298.15 K, 101 kPa, x1 = 0.7542 | 0.5603
298.15 K, 101 kPa, x1 = 0.8971 | 0.546
298.15 K, 101 kPa, x2 = 0.1029 | 0.546
298.15 K, 101 kPa, x2 = 0.1297 | 0.5454
298.15 K, 101 kPa, x2 = 0.2 | 0.525
298.15 K, 101 kPa, x2 = 0.2983 | 0.5512
298.15 K, 101 kPa, x2 = 0.3141 | 0.557
298.15 K, 101 kPa, x2 = 0.3724 | 0.5535
298.15 K, 101 kPa, x2 = 0.4 | 0.541
298.15 K, 101 kPa, x2 = 0.4086 | 0.5544
298.15 K, 101 kPa, x2 = 0.49 | 0.558
298.15 K, 101 kPa, x2 = 0.5395 | 0.5613
298.15 K, 101 kPa, x2 = 0.6 | 0.555
298.15 K, 101 kPa, x2 = 0.6023 | 0.5633
298.15 K, 101 kPa, x2 = 0.6707 | 0.5656
298.15 K, 101 kPa, x2 = 0.6862 | 0.5668
298.15 K, 101 kPa, x2 = 0.7414 | 0.5709
298.15 K, 101 kPa, x2 = 0.8 | 0.574
298.15 K, 101 kPa, x2 = 0.8037 | 0.581
298.15 K, 101 kPa, x2 = 0.8801 | 0.5866
298.15 K, 101 kPa, x2 = 0.9029 | 0.587
298.15 K, 101 kPa, x2 = 0.9214 | 0.589
298.15 K, 101 kPa, x2 = 0.962 | 0.5949
298.15 K, 101.33 kPa, x1 = 0.0672 | 0.5938
298.15 K, 101.33 kPa, x1 = 0.1508 | 0.5847
298.15 K, 101.33 kPa, x1 = 0.2151 | 0.5795
298.15 K, 101.33 kPa, x1 = 0.3057 | 0.5722
298.15 K, 101.33 kPa, x1 = 0.5108 | 0.5613
298.15 K, 101.33 kPa, x1 = 0.6489 | 0.559
298.15 K, 101.33 kPa, x1 = 0.8164 | 0.5493
298.15 K, 101.33 kPa, x1 = 0.9301 | 0.5403
303.15 K, 101 kPa, x1 = 0.101 | 0.548
303.15 K, 101 kPa, x1 = 0.245 | 0.533
303.15 K, 101 kPa, x1 = 0.433 | 0.527
303.15 K, 101 kPa, x1 = 0.653 | 0.52
308 K, 101 kPa, x2 = 0.1452 | 0.4917
308 K, 101 kPa, x2 = 0.2124 | 0.4939
308 K, 101 kPa, x2 = 0.2765 | 0.4958
308 K, 101 kPa, x2 = 0.3958 | 0.5001
308 K, 101 kPa, x2 = 0.5047 | 0.5049
308 K, 101 kPa, x2 = 0.5556 | 0.5077
308 K, 101 kPa, x2 = 0.6045 | 0.5108
308 K, 101 kPa, x2 = 0.6513 | 0.5136
308 K, 101 kPa, x2 = 0.6963 | 0.5168
308 K, 101 kPa, x2 = 0.781 | 0.5225
308 K, 101 kPa, x2 = 0.8594 | 0.5282
308 K, 101 kPa, x2 = 0.8965 | 0.5311
308 K, 101 kPa, x2 = 0.9322 | 0.5336
313.15 K, 101 kPa, x1 = 0.101 | 0.483
313.15 K, 101 kPa, x1 = 0.245 | 0.473
313.15 K, 101 kPa, x1 = 0.433 | 0.47
313.15 K, 101 kPa, x1 = 0.653 | 0.471
318 K, 101 kPa, x2 = 0.1452 | 0.451
318 K, 101 kPa, x2 = 0.2124 | 0.452
318 K, 101 kPa, x2 = 0.2765 | 0.4532
318 K, 101 kPa, x2 = 0.3958 | 0.4558
318 K, 101 kPa, x2 = 0.5047 | 0.4587
318 K, 101 kPa, x2 = 0.5556 | 0.4602
318 K, 101 kPa, x2 = 0.6045 | 0.4618
318 K, 101 kPa, x2 = 0.6513 | 0.4635
318 K, 101 kPa, x2 = 0.6963 | 0.4652
318 K, 101 kPa, x2 = 0.781 | 0.4685
318 K, 101 kPa, x2 = 0.8594 | 0.472
318 K, 101 kPa, x2 = 0.8965 | 0.4738
318 K, 101 kPa, x2 = 0.9322 | 0.4755
323.15 K, 101 kPa, x1 = 0.101 | 0.431
323.15 K, 101 kPa, x1 = 0.245 | 0.426
323.15 K, 101 kPa, x1 = 0.433 | 0.43
